Several values for one entry are separate records, joined by “and”; a condition that tells them apart may be missing. Equal values may be shown once. Read-outs that look alike come from different tables or passages of the source.
Experiments:
scPTZ-induced seizures = assay: Pentylenetetrazole (PTZ)-induced seizure test (scPTZ); type: in vivo; conditions: 100 mg/kg i.p., PTZ 85 mg/kg s.c., mice
Description: (§1) Male Kunming mice (23–28 g) were maintained under controlled conditions with ad libitum access to standard pellet diet and water. Test compounds were formulated immediately prior to administration in normal saline containing 0.5% Tween-80. Our experiment was authorized by the Institutional Animal Care and Use Committee of Shaanxi University of Chinese Medicine (animal ethics certificate number: SUCMDL20210309027).
Seizures were induced by subcutaneous (s.c.) administration of PTZ (85 mg/kg in 1% v/v Tween-80/0.9% NaCl), 30 min after compound treatment. This dose produces clonic seizures (≥5 s duration) in 97% of naive mice. Latency to seizure onset was recorded during continuous observation.

[1] = Acute neurotoxicity screening (rotarod test); type: in vivo, mice; conditions: male, Kunming, mouse, in vivo, ip, 30 min post-administration, 95% confidence intervals in parentheses
Description: as §1
Neurotoxicity was assessed via a rotarod test. Mice were trained to maintain balance on a rotating rod (diameter: 4 cm; 24 rpm). Trained animals received i.p. injections of test compounds or reference drugs. At 30 min post-administration, neurologic impairment was defined as failure to remain on the rod for 3 min (≥3 falls within the testing period). Data were used to calculate TD50 values.

[2] = tested on: maximal electroshock (MES) induced seizures; assay: Maximal electroshock (MES) test; type: in vivo, mice; conditions: Mus musculus, ip; for ED50: 95% confidence intervals in parentheses
Description: as §1
The MES test carried out following the method of Swinyard. A 60 Hz current (50 mA; 0.25 s duration) was delivered via corneal electrodes using a YSD-4G electro convulsion meter (Zhenghua Instruments, Huaibei, China, SN: ZH0056232). […] Test compounds were suspended in an identical vehicle. Protection was defined as abolition of tonic hindlimb extension.

LDH enzyme = assay: In vitro LDH assay; type: biochemical
Description: Employing the commercial LDH enzyme (Solarbio Life Science, Beijing, China, CAS:9001-60-9, Lot. Document No. 14240222001) includes a colorimetric assay kit designed to assess the synthesized substances’ capacity to suppress the LDH enzyme, using established techniques with slight alterations. In summary, a 96-well microplate was filled with 30 μL of LDH enzyme (300 U/mL) and 70 μL of the inhibitor mixture (0.1 mM in final concentration). Following a 10 min pre-incubation process at ambient temperature, […] of NADH (0.2 mM) was introduced. Subsequently, each well received 40 μL of phosphate buffer (20 mM, pH 6.8), reaching a total volume of 250 μL, followed by a 10 min incubation of the assay plate at 28 °C. Subsequently, […] absorbance was gauged at 340 nm utilizing a SpectraMax 190 Absorbance Microplate Reader (Molecular Devices, San Jose, CA, USA). […] In the initial screening, the level of suppression by the test substances was denoted as a percentage (%). The calculation for the LDH inhibition ratio was as follows:Inhibition (%) = [(Asample − Ablank)/Acontrol] × 100%
Asample denotes the OD340 absorbance of test compound and Ablank is the OD340 absorbance for the blank. Acontrol represents the OD340 absorbance of control.

LDH = assay: Immunofluorescence staining for LDH in hippocampus; type: in vivo; conditions: hippocampus CA1, PTZ model mice
Description: Brain samples were extracted, preserved in 4% paraformaldehyde for a day, and subsequently immersed in a 30% sucrose solution to dehydrate. Post OCT embedding, slices of brain tissue measuring 16 μm in thickness were sliced using a cryostat. Following the permeabilization using 0.5% TritonX-100 and subsequent blocking with 10% goat serum at ambient temperature to remove nonspecific staining, the tissue samples were subjected to overnight incubation at 4 °C with the primary antibody, LDHA (Proteintech (Rosemont, IL, USA), Cat No. 19987-1-AP, Lot: 00106920, rabbit anti-rat 1:200). On the next day, the slides underwent incubation using a secondary antibody. The slides underwent counterstaining using DAPI. […] slices were examined and visualized utilizing the VS200-BU Slide Scanner (Olympus Corporation, Tokyo, Japan).

[3] = tested on: neurons in CA1 and CA3 regions of the hippocampus; assay: Silver staining of hippocampal tissue; type: in vivo; conditions: PTZ model mice, compared with PTZ group
Description: Following the creation of the PTZ model, a modified version of the silver impregnation staining technique was applied for silver staining, enabling the observation of changes in neuronal fibers and synapses throughout diseases. Brain tissue slices from each mouse, encased in paraffin, underwent deparaffinization using xylene and absolute ethanol, followed by a treatment in acidic formaldehyde, and then incubation in a glycine–silver mixture. Following the application of a reducing solution for staining, the samples were analyzed using an optical microscope. Against a yellow backdrop, nerve cells’ axons, dendrites, collagen fibers, and neurofibrillary tangles were colored in dark brown or black.

[4] = tested on: PTZ-induced epileptic spikes; assay: Electroencephalogram (EEG) after PTZ; type: in vivo, mice; conditions: 100 mg/kg i.p.
Description: Mice sedated with urethane were subjected to aseptic craniotomy, involving the stereotaxic insertion of cortical screw electrodes aligned with bregma coordinates (anterior–posterior: +3.0 mm; mediolateral: ±1.5 mm) and a reference electrode (anterior–posterior: −2.0 mm; mediolateral: −1.5 mm). The electrodes were secured using dental acrylic, followed by a recovery period of 5–7 days for the animals before the instrumentation. The continuous EEG data were captured through using 8-channel bioamplifiers linked to a PowerLab 8/30 system (AD Instruments, Shanghai, China). After a 30 min acclimatization period in the recording chambers, initial activity levels were documented for 15–20 min. […] After 60 min, pentylenetetrazol (PTZ, 85 mg/kg i.p.) was administered, initiating seizure. Sampling of EEG signals occurred at a frequency of 200 Hz, utilizing a bandpass filter ranging from 0.1 to 60 Hz. Electrographic convulsions were characterized by spikes surpassing double the baseline amplitude, quantified by (1) the delay before the initial spike (seconds after PTZ); (2) the frequency of spikes (counts per 60 s period from the first spike) through established peak-detection methods.

[5] = 100 mg/kg i.p., mice, 0.5 h, read-out: MES model, protected mice/total mice, 0.5 h (converted)
[6] = 100 mg/kg i.p., mice, 1 h, read-out: MES model, protected mice/total mice, 1 h (converted)
[7] = 100 mg/kg i.p., mice, 2 h, read-out: MES model, protected mice/total mice, 2 h (converted)
[8] = 100 mg/kg i.p., mice, 3 h, read-out: MES model, protected mice/total mice, 3 h (converted)

Row | SMILES | SCPTZ Latent Time (100 mg/kg, s) (scPTZ-induced seizures) | SCPTZ Protective Ratio (100 mg/kg) (scPTZ-induced seizures) | TD50 at 30 min [1] | responders at 100 mg/kg [2, 5] | responders at 100 mg/kg [2, 6] | responders at 100 mg/kg [2, 7] | responders at 100 mg/kg [2, 8] | ED50 ([2]; mice) | LDH Inhibition Ratio (0.1 mM) (LDH enzyme) | LDH immunolabelling intensity (LDH) | silver staining, neurons in hippocampal CA1 and CA3 [3] | latency to the first PTZ-induced epileptic spike (EEG) ([4]; PTZ 85 mg/kg i.p. after 60 min) | spike frequency within 60 s post-initial spike (EEG) ([4]; compared to PTZ controls) | responders at 100 mg/kg ([2]; 0.5 h, read-out: MES model, protected mice/total mice, 0.5 h) | responders at 100 mg/kg ([2]; 1 h, read-out: MES model, protected mice/total mice, 1 h) | responders at 100 mg/kg ([2]; 2 h, read-out: MES model, protected mice/total mice, 2 h) | responders at 100 mg/kg ([2]; 3 h, read-out: MES model, protected mice/total mice, 3 h)
1 | COc1cc(/C=C/C(=O)N2CCN(CCCC(=O)N3CCN(C(c4ccc(F)cc4)c4ccc(F)cc4)CC3)CC2)cc(OC)c1OC [A9, (E)-1-(4-(bis(4-fluorophenyl)methyl)piperazin-1-yl)-4-(4-(3-(3,4,5-trimethoxyphenyl)acryloyl)piperazin-1-yl)butan-1-one] | 204.5 ± 12.6 s | 1/4 | 305 mg/kg | 100% | 75% | 50% | 0% | 37.5 mg/kg | – | – | – | – | – | – | – | – | –
2 | COc1cc(/C=C/C(=O)N2CCN(C(=O)CCC(=O)N3CCN(c4cccc(Cl)c4Cl)CC3)CC2)cc(OC)c1OC [B12, (E)-1-(4-(2,3-dichlorophenyl)piperazin-1-yl)-4-(4-(3-(3,4,5-trimethoxyphenyl)acryloyl)piperazin-1-yl)butane-1,4-dione] | 230.3 ± 17.4 s | 1/4 | 417 mg/kg | 100% | 75% | 25% | 25% | 60.3 mg/kg | 44.3 ± 6.5% | – | – | – | – | – | – | – | –
3 | COc1cc(/C=C/C(=O)N2CCN(CCCC(=O)N3CCN(c4cccc(Cl)c4Cl)CC3)CC2)cc(OC)c1OC [A12, (E)-1-(4-(2,3-dichlorophenyl)piperazin-1-yl)-4-(4-(3-(3,4,5-trimethoxyphenyl)acryloyl)piperazin-1-yl)butan-1-one] | 161.5 ± 24.0 s | 0/4 | 284 mg/kg | 100% | 75% | 75% | 25% | 54.7 mg/kg | 41.9 ± 9.2% | – | – | – | – | – | – | – | –
4 | COc1cc(/C=C/C(=O)N2CCN(C(=O)CCC(=O)N3CCN(C(c4ccc(F)cc4)c4ccc(F)cc4)CC3)CC2)cc(OC)c1OC [B9, (E)-1-(4-(bis(4-fluorophenyl)methyl)piperazin-1-yl)-4-(4-(3-(3,4,5-trimethoxyphenyl)acryloyl)piperazin-1-yl)butane-1,4-dione] | 274.3 s and 274.3 ± 17.2 s | 3/4 | 235 mg/kg | – | – | – | – | 23.6 mg/kg | – | lower than the values found in the PTZ group | alleviated symptoms | extended | significantly reduced | 100% | 75% | 25% | 0%
5 | COc1cc(/C=C/C(=O)N2CCN(CCCC(=O)O)CC2)cc(OC)c1OC [A1] | – | – | – | 25% | 25% | 0% | 0% | – | – | – | – | – | – | – | – | – | –
6 | COc1ccccc1N1CCN(C(=O)CCC(=O)N2CCN(C(=O)/C=C/c3cc(OC)c(OC)c(OC)c3)CC2)CC1 [B15, (E)-1-(4-(2-methoxyphenyl)piperazin-1-yl)-4-(4-(3-(3,4,5-trimethoxyphenyl)acryloyl)piperazin-1-yl)butane-1,4-dione] | – | – | – | 75% | 75% | 25% | 0% | – | – | – | – | – | – | – | – | – | –
7 | C/C=C/c1ccc(OC(=O)CCC(=O)N2CCN(C(=O)/C=C/c3cc(OC)c(OC)c(OC)c3)CC2)c(OC)c1 [B3, 2-methoxy-4-((E)-prop-1-en-1-yl)phenyl 4-oxo-4-(4-((E)-3-(3,4,5-trimethoxyphenyl)acryloyl)piperazin-1-yl)butanoate] | – | – | – | 75% | 75% | 25% | 0% | – | – | – | – | – | – | – | – | – | –
8 | COc1cc(/C=C/C(=O)N2CCN(C(=O)CCC(=O)N3CCN(C(c4ccccc4)c4ccccc4)CC3)CC2)cc(OC)c1OC [B8, (E)-1-(4-benzhydrylpiperazin-1-yl)-4-(4-(3-(3,4,5-trimethoxyphenyl)acryloyl)piperazin-1-yl)butane-1,4-dione] | – | – | – | 75% | 75% | 25% | 0% | – | – | – | – | – | – | – | – | – | –
9 | COc1cc(/C=C/C(=O)N2CCN(CCCC(=O)N3CCN(c4ccccc4)CC3)CC2)cc(OC)c1OC [A11, (E)-1-(4-phenylpiperazin-1-yl)-4-(4-(3-(3,4,5-trimethoxyphenyl)acryloyl)piperazin-1-yl)butan-1-one] | – | – | – | 25% | 25% | 25% | 0% | – | – | – | – | – | – | – | – | – | –
10 | COc1cc(/C=C/C(=O)N2CCN(CCCC(=O)N3CCN(c4ccc(C(F)(F)F)cc4)CC3)CC2)cc(OC)c1OC [A14, (E)-1-(4-(4-(trifluoromethyl)phenyl)piperazin-1-yl)-4-(4-(3-(3,4,5-trimethoxyphenyl)acryloyl)piperazin-1-yl)butan-1-one] | 233.5 ± 18.3 s | 2/4 | 358 mg/kg | 100% | 100% | 75% | 25% | 52.4 mg/kg | 42.6 ± 7.3% | – | – | – | – | – | – | – | –

— PMC12472621, “Excavating Precursors from Herb Pairs Polygala tenuifolia and Acori tatarinowii: Synthesis and Anticonvulsant Activity Evaluation of 3,4,5-Trimethoxycinnamic Acid (TMCA) Piperazine Amide Derivatives” (Pharmaceuticals, 2025)
